Laboratory results published in PubChem BioAssay (NCI).
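Each compound was tested at five concentrations against cells in 96-well plates for 48 hours. GI50 = concentration required for 50% inhibition of growth. Definition used: TGI = concentration required for complete inhibition of growth.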

system: OVCAR-3 ovarian; assay: inhibition of tumour cell growth, NCI panel, 48 h

Row | Compound | TGI | GI50
1 | CCOP(=O)(OCC)c1cc(-c2ccccc2)ccc1N | > 100 µM | 
2 | COc1cc2c(cc1OCCCOc1cc3c(cc1OC)C(=O)N1CCC[C@H]1CN3)N=C[C@@H]1CCCN1C2=O | 0.342 µM | 
3 | CCOC(=O)C1=C(C)NC(=O)N([N+](=O)[O-])C1c1ccccc1C(F)(F)F (centres undefined) | > 100 µM | 
4 | Brc1ccc2c(c1)-c1nc3c(cc1CC2)CCc1ccc(Br)cc1-3 | > 100 µM | 
5 | COP(=O)(CC(=O)C1OC(OCc2ccccc2)C(OCc2ccccc2)C(OCc2ccccc2)C1OCc1ccccc1)OC (centres undefined) | > 100 µM | 
6 | Cc1cn(C2CC(OC(c3ccccc3)(c3ccccc3)c3ccccc3)C(COC(c3ccccc3)(c3ccccc3)c3ccccc3)O2)c(=O)[nH]c1=O (centres undefined) | > 100 µM | 
7 | CCOC(=O)C(NC(=O)c1ccc(N=NN(C)C)cc1)C(C)C (centres undefined) | > 100 µM | 
8 | COc1cc(CCCOC2OC(COC3OCC(O)C(O)C3O)C(O)C(O)C2O)cc2cc(-c3ccc4c(c3)OCO4)oc12 (centres undefined) | > 175 µM | 
9 | Cc1cc2c(cc1Cl)SC(NNc1cnc3ccccc3n1)=NS2(=O)=O | > 100 µM | 
10 | O=[N+]([O-])c1ccc2nc3c(nc2c1)-c1c2ccccc2cc2cccc-3c12 | 51.7 µM | 
11 | COc1ccc(CN2C(=O)C(=O)N(C)C2=O)c2ccccc12 | > 10 µM | 
12 | C(=N/Nc1ccc(-c2nc3ccccc3[nH]2)cc1)/c1c(-c2ccccc2)[nH]c2ccccc12 | 0.591 µM | 
13 | CCOC(=O)c1c(NC(=S)Nc2ccc(C)cc2)sc2c1CCN(C)C2 | > 100 µM | 
14 | Cc1ccc(-n2cc(-c3ccc(Cl)cc3)c3c2N=CN2NC(c4ccco4)=NC32)cc1 (centres undefined) | 73.8 µM | 
15 | COc1cc(/C=C/c2cc(=O)cc(/C=C/c3ccc(O)c(OC)c3)o2)ccc1O | > 100 µM | 
16 | c1ccc([P+](Cc2csnn2)(c2ccccc2)c2ccccc2)cc1 | > 100 µM | 
17 | COc1cc2c(cc1O)CC[n+]1cc3c(OC)c(OC)ccc3cc1-2 | > 100 µM | 
18 | NC(=S)N=Nc1c(O)cc(Nc2ccc(Cl)cc2Cl)c2ccccc12 | 54.4 µM | 
19 | Cc1ccc(C(=O)c2[nH]c(Nc3cc(C)ccn3)c(C(=S)Nc3ccccc3)c2N)cc1 | > 100 µM | 

Row | Compound | TGI | GI50
20 | Nc1nc(Nc2ccc(OCc3cccc(F)c3)cc2)c2c(n1)[nH]c1ccc(O)cc12 | 3.46 µM | 1.89 µM
21 | CCC1(CC)C(=O)NC(=S)N=C1N | > 100 µM | 
22 | CC1=NC(C)(C)N(O)C1(C)C | > 100 µM | 
23 | CCCC[C@@H]1CCN2C[C@@H](O)[C@@H](O)[C@H]2[C@@H]1O | > 100 µM | 
24 | Clc1cccc(C2ON=C(c3ccccc3)N2C23CC4CC(CC(C4)C2)C3)c1Cl (centres undefined) | > 10 µM | 
25 | CNc1ccc2c(c1)Cc1ccccc1-2 | 62.5 µM | 
26 | CCN(CC(=O)O)CC(=O)O | > 100 µM | 
27 | Cc1cc(C)nc(NS(=O)(=O)c2ccc(Nc3c4ccccc4nc4c(C(=O)NCCO)cccc34)cc2)n1 | > 100 µM | 
28 | CCOC(=O)c1csc(NC(=O)CCCC#N)n1 | > 100 µM | 
29 | O=c1cc(-c2ccccc2F)[nH]c2cc3c(cc12)OCO3 | 0.779 µM | 
30 | COC1OC2COC(C)(C)OC2C2OC(C)(C)OC12 (centres undefined) | > 100 µM | 
31 | COc1ccc(CCCCl)c(C2=NCCc3ccccc32)c1 | > 100 µM | 
32 | O=C1NN=C(c2c[nH]c3ccccc23)CC1NCc1ccccc1 (centres undefined) | > 100 µM | 
33 | O=C(NCCCNCCCCNCCCNC(=O)C(F)(F)F)C(F)(F)F | > 100 µM | 
34 | CCOC(=O)C(C)NC(=O)N(C)C12CC3CC(CC(C3)C1)C2 (centres undefined) | > 479 µM | 
35 | O=C(O)c1cc2ccccc2c(S(=O)(=O)O)c1O | > 100 µM | 
36 | O=c1c2cc3c(=O)n(CCc4ccccc4CO)c(=O)c3cc2c(=O)n1CCc1ccccc1CO | > 100 µM | 
37 | CCc1cc(=O)n(/C(C)=C/c2ccccc2)n1C | > 100 µM | 
38 | CCOC(=O)c1[nH]c2nc(SC)nc(NC)c2c1N | > 100 µM | 

system: M14 melanoma; assay: inhibition of tumour cell growth, NCI panel, 48 h

Row | Compound | TGI | GI50
39 | CCOP(=O)(OCC)c1cc(-c2ccccc2)ccc1N | > 100 µM | 
40 | COc1cc2c(cc1OCCCOc1cc3c(cc1OC)C(=O)N1CCC[C@H]1CN3)N=C[C@@H]1CCCN1C2=O | 0.24 µM | 
41 | CCOC(=O)C1=C(C)NC(=O)N([N+](=O)[O-])C1c1ccccc1C(F)(F)F (centres undefined) | > 100 µM | 
42 | Brc1ccc2c(c1)-c1nc3c(cc1CC2)CCc1ccc(Br)cc1-3 | > 100 µM | 
43 | COP(=O)(CC(=O)C1OC(OCc2ccccc2)C(OCc2ccccc2)C(OCc2ccccc2)C1OCc1ccccc1)OC (centres undefined) | 70 µM | 
44 | OC(c1ccco1)C(F)(F)c1nc2ccccc2o1 (centres undefined) | > 100 µM | 
45 | CN1c2ccccc2C(=O)NC12CCN(CC1COc3ccccc3O1)CC2 (centres undefined) | > 100 µM | 
46 | Cc1cn(C2CC(OC(c3ccccc3)(c3ccccc3)c3ccccc3)C(COC(c3ccccc3)(c3ccccc3)c3ccccc3)O2)c(=O)[nH]c1=O (centres undefined) | > 100 µM | 
47 | CCOC(=O)C(NC(=O)c1ccc(N=NN(C)C)cc1)C(C)C (centres undefined) | > 100 µM | 
48 | Cc1cc2c(cc1Cl)SC(NNc1cnc3ccccc3n1)=NS2(=O)=O | > 100 µM | 
49 | O=[N+]([O-])c1ccc2nc3c(nc2c1)-c1c2ccccc2cc2cccc-3c12 | > 91.7 µM | 
50 | COc1ccc(CN2C(=O)C(=O)N(C)C2=O)c2ccccc12 | > 10 µM | 
51 | C(=N/Nc1ccc(-c2nc3ccccc3[nH]2)cc1)/c1c(-c2ccccc2)[nH]c2ccccc12 | > 100 µM | 
52 | CCOC(=O)c1c(NC(=S)Nc2ccc(C)cc2)sc2c1CCN(C)C2 | > 100 µM | 
53 | Cc1ccc(-n2cc(-c3ccc(Cl)cc3)c3c2N=CN2NC(c4ccco4)=NC32)cc1 (centres undefined) | > 100 µM | 
54 | COc1cc(/C=C/c2cc(=O)cc(/C=C/c3ccc(O)c(OC)c3)o2)ccc1O | > 100 µM | 
55 | c1ccc([P+](Cc2csnn2)(c2ccccc2)c2ccccc2)cc1 | > 100 µM | 
56 | NNC(=O)c1cccc2c1Oc1ccccc1S2 | > 100 µM | 
57 | COc1cc2c(cc1O)CC[n+]1cc3c(OC)c(OC)ccc3cc1-2 | > 100 µM | 
58 | NC(=S)N=Nc1c(O)cc(Nc2ccc(Cl)cc2Cl)c2ccccc12 | > 100 µM | 
59 | Cc1ccc(C(=O)c2[nH]c(Nc3cc(C)ccn3)c(C(=S)Nc3ccccc3)c2N)cc1 | > 100 µM | 
60 | Nc1nc(Nc2ccc(OCc3cccc(F)c3)cc2)c2c(n1)[nH]c1ccc(O)cc12 | 4.77 µM | 2.12 µM

Row | Compound | TGI | GI50
61 | CCC1(CC)C(=O)NC(=S)N=C1N | > 100 µM | 
62 | CC1=NC(C)(C)N(O)C1(C)C | > 100 µM | 
63 | O=c1oc2ccccc2c2nc3ccccc3cc12 | > 100 µM | 
64 | CCCC[C@@H]1CCN2C[C@@H](O)[C@@H](O)[C@H]2[C@@H]1O | > 100 µM | 
65 | O=C(NN1C(=O)CSC1c1ccc(Cl)c(Cl)c1)c1ccncc1 (centres undefined) | > 100 µM | 
66 | Clc1cccc(C2ON=C(c3ccccc3)N2C23CC4CC(CC(C4)C2)C3)c1Cl (centres undefined) | > 10 µM | 
67 | CNc1ccc2c(c1)Cc1ccccc1-2 | 71.3 µM | 
68 | CCN(CC(=O)O)CC(=O)O | > 100 µM | 
69 | Cc1cc(C)nc(NS(=O)(=O)c2ccc(Nc3c4ccccc4nc4c(C(=O)NCCO)cccc34)cc2)n1 | 65 µM | 
70 | CCOC(=O)c1csc(NC(=O)CCCC#N)n1 | > 100 µM | 
71 | O=c1cc(-c2ccccc2F)[nH]c2cc3c(cc12)OCO3 | 5.1 µM | 
72 | COC1OC2COC(C)(C)OC2C2OC(C)(C)OC12 (centres undefined) | > 100 µM | 
73 | CCNC(=S)N/N=C/c1ccccn1 | 32.7 µM | 
74 | COc1ccc(CCCCl)c(C2=NCCc3ccccc32)c1 | > 100 µM | 
75 | O=C1NN=C(c2c[nH]c3ccccc23)CC1NCc1ccccc1 (centres undefined) | > 100 µM | 
76 | C=C1CC=CC(C)(C)C1C/C=C(\C)C(O)CBr (centres undefined) | > 100 µM | 
77 | O=C(NCCCNCCCCNCCCNC(=O)C(F)(F)F)C(F)(F)F | > 100 µM | 
78 | O=C(O)c1cc2ccccc2c(S(=O)(=O)O)c1O | > 100 µM | 
79 | CCc1cc(=O)n(/C(C)=C/c2ccccc2)n1C | > 100 µM | 
80 | CCOC(=O)c1[nH]c2nc(SC)nc(NC)c2c1N | > 100 µM | 
81 | FC(F)=C(c1ccc(-c2ccc(Cl)cc2)cc1)C(F)(F)F | 36.1 µM | 

system: EKVX NSCLC; assay: inhibition of tumour cell growth, NCI panel, 48 h

Row | Compound | TGI
82 | CCOP(=O)(OCC)c1cc(-c2ccccc2)ccc1N | > 100 µM
83 | COc1cc2c(cc1OCCCOc1cc3c(cc1OC)C(=O)N1CCC[C@H]1CN3)N=C[C@@H]1CCCN1C2=O | > 49 µM
84 | Brc1ccc2c(c1)-c1nc3c(cc1CC2)CCc1ccc(Br)cc1-3 | > 100 µM
85 | COP(=O)(CC(=O)C1OC(OCc2ccccc2)C(OCc2ccccc2)C(OCc2ccccc2)C1OCc1ccccc1)OC (centres undefined) | 50.4 µM
86 | OC(c1ccco1)C(F)(F)c1nc2ccccc2o1 (centres undefined) | > 100 µM
87 | CN1c2ccccc2C(=O)NC12CCN(CC1COc3ccccc3O1)CC2 (centres undefined) | > 100 µM
88 | Cc1cn(C2CC(OC(c3ccccc3)(c3ccccc3)c3ccccc3)C(COC(c3ccccc3)(c3ccccc3)c3ccccc3)O2)c(=O)[nH]c1=O (centres undefined) | > 100 µM
89 | CCOC(=O)C(NC(=O)c1ccc(N=NN(C)C)cc1)C(C)C (centres undefined) | > 100 µM
90 | COc1cc(CCCOC2OC(COC3OCC(O)C(O)C3O)C(O)C(O)C2O)cc2cc(-c3ccc4c(c3)OCO4)oc12 (centres undefined) | > 175 µM
91 | Cc1cc2c(cc1Cl)SC(NNc1cnc3ccccc3n1)=NS2(=O)=O | > 100 µM
92 | O=[N+]([O-])c1ccc2nc3c(nc2c1)-c1c2ccccc2cc2cccc-3c12 | > 100 µM
93 | COc1ccc(CN2C(=O)C(=O)N(C)C2=O)c2ccccc12 | > 10 µM
94 | C(=N/Nc1ccc(-c2nc3ccccc3[nH]2)cc1)/c1c(-c2ccccc2)[nH]c2ccccc12 | > 100 µM
95 | CCOC(=O)c1c(NC(=S)Nc2ccc(C)cc2)sc2c1CCN(C)C2 | > 100 µM
96 | Cc1ccc(-n2cc(-c3ccc(Cl)cc3)c3c2N=CN2NC(c4ccco4)=NC32)cc1 (centres undefined) | > 100 µM
97 | COc1cc(/C=C/c2cc(=O)cc(/C=C/c3ccc(O)c(OC)c3)o2)ccc1O | > 100 µM
98 | c1ccc([P+](Cc2csnn2)(c2ccccc2)c2ccccc2)cc1 | > 100 µM
99 | NNC(=O)c1cccc2c1Oc1ccccc1S2 | > 100 µM
100 | COc1cc2c(cc1O)CC[n+]1cc3c(OC)c(OC)ccc3cc1-2 | > 100 µM
101 | NC(=S)N=Nc1c(O)cc(Nc2ccc(Cl)cc2Cl)c2ccccc12 | 94.4 µM
102 | Cc1ccc(C(=O)c2[nH]c(Nc3cc(C)ccn3)c(C(=S)Nc3ccccc3)c2N)cc1 | > 100 µM
